According to patent US20190029252A1, “Use of Herbicide-tolerant Protein” (BEIJING DABEINONG TECHNOLOGY GROUP CO., LTD., priority 2016, published 2019):

How the values were obtained:
Format in all cases: in vivo
[1] = test system: wild-type Arabidopsis thaliana plants; assay: Herbicide tolerance of Arabidopsis thaliana plants, sprayed, resistance classes counted 14 days after spraying
From the text: T1 transformants were initially selected from the background of untransformed seeds using a glufosinate selection scheme. About 40000 T1 seeds were screened, and 380 T1 positive transformants (PAT gene) were identified with a transformation efficiency of about 0.95%. The plants that were transformed with the recombinant expression vector DBN100632 were Arabidopsis thaliana plants having an ALT-1-01 nucleotide sequence located in the cytoplasm introduced (At cytoplasmic ALT-1-01), and the plants that were transformed with the recombinant expression vector DBN100631 were Arabidopsis thaliana plants having an ALT-1-01 nucleotide sequence located in the chloroplast introduced (At chloroplastic ALT-1-01); the plants that were transformed with the recombinant expression vector DBN100634 were Arabidopsis thaliana plants having an ALT-2-01 nucleotide sequence located in the cytoplasm introduced (At cytoplasmic ALT-2-01), and the plants that were transformed with the recombinant expression vector DBN100633 were Arabidopsis thaliana plants having an ALT-2-01 nucleotide sequence located in the chloroplast introduced (At chloroplastic ALT-2-01); and the plants that were transformed with the recombinant expression vector DBN100636 were Arabidopsis thaliana plants having an ALT-3-01 nucleotide sequence located in the cytoplasm introduced (At cytoplasmic ALT-3-01), and the plants that were transformed with the recombinant expression vector DBN100635 were Arabidopsis thaliana plants having an ALT-3-01 nucleotide sequence located in the chloroplast introduced (At chloroplastic ALT-3-01).
(§1) Plants were counted for the resistance situations 14 days after spraying: those having a consistent growth status with the blank solvent (water) group after 14 days were classified as highly resistant plants, those having a bolting height less than ½ of that of the blank solvent (water) group after 14 days were classified as moderately resistant plants, those still not capable of bolting after 14 days were classified as poorly resistant plants, and those dead after 14 days were classified as non-resistant plants. Since each Arabidopsis thaliana T1 plant was an independent transformation event, a significant difference in individual T1 responses could be expected at a given dose.
as §1, with “situation” for “situations”

[2] = test system: transgenic maize plants (ALT-1, ALT-2 and ALT-3); assay: Tribenuron-methyl tolerance of transgenic maize plants, overall conclusion; settings: 72 g ai/ha
Procedure: (§2) The damage degree caused by the herbicide was measured for each plant according to the plant growth status 3 days after spraying (3 DAT), 7 days after spraying (7 DAT), 14 days after spraying (14 DAT) and 21 days after spraying (21 DAT), respectively: considering a growth status equivalent to that of the untreated plants as having a damage degree of 0%; considering conditions of leaves being partially chlorotic and yellow but substantially not affecting the plant normal growth as having a damage degree of 50%; and considering the whole plant being purple and dying as having a damage degree of 100%. There were 2 strains in Zm cytoplasmic ALT-1-02 maize plants in total (S13 and S14), 2 strains in Zm chloroplastic ALT-1-02 maize plants in total (S15 and S16), 2 strains in Zm cytoplasmic ALT-2-02 maize plants in total (S17 and S18), 2 strains in Zm chloroplastic ALT-2-02 maize plants in total (S19 and S20), 2 strains in Zm cytoplasmic ALT-3-02 maize plants in total (S21 and S22), 2 strains in Zm chloroplastic ALT-3-02 maize plants in total (S23 and S24), and 1 strain in wild-type maize plants (CK2) in total; and 10-15 plants were selected from each strain and tested.

[3] = test system: Zm chloroplastic ALT-2-02 maize plants; assay: Tribenuron-methyl tolerance of maize plants, damage degree after spraying; settings: 72 g ai/ha (4-fold field concentration)
Procedure: as §2

[4] = test system: Zm chloroplastic ALT-1-02 maize plants; assay: as above; settings: 72 g ai/ha (4-fold field concentration)
Procedure: as §2

[5] = test system: Zm cytoplasmic ALT-2-02 maize plants; assay: as above; settings: 72 g ai/ha (4-fold field concentration)
Procedure: as §2

[6] = wild-type, sprayed at 1-fold field concentration, 14 days after spraying
[7] = maize strain S19 (Zm chloroplastic ALT-2-02)
[8] = maize strain S20 (Zm chloroplastic ALT-2-02)
[9] = maize strain S15 (Zm chloroplastic ALT-1-02)
[10] = maize strain S16 (Zm chloroplastic ALT-1-02)
[11] = maize strain S17 (Zm cytoplasmic ALT-2-02)
[12] = maize strain S18 (Zm cytoplasmic ALT-2-02)

`COC(=O)c1ccccc1S(=O)(=O)NC(=O)N(C)c1nc(C)nc(OC)n1` [tribenuron-methyl, methyl 2-[N-(4-methoxy-6-methyl-1,3,5-triazin-2-yl)-N-methylaminoformamidosulfonyl]benzoate] was tested, and the “herbicide tolerance (in words)” value ([1]; wild-type Arabidopsis thaliana plants, 18 g ai/ha) was “none of the wild-type Arabidopsis thaliana plants was tolerant”, the “Highly resistant (number of plants)” value [1, 6] was 0 and the “Moderately resistant (number of plants)” value [1, 6] was 0. For the same molecule, the “Non-resistant (number of plants)” value [1, 6] was 32, the “Poorly resistant (number of plants)” value [1, 6] was 0 and the “herbicide tolerance conferred by thifensulfuron hydrolase (in words)” value [2] was “a high level of tribenuron-methyl herbicide tolerance”. The “Average damage % 3DAT” value [3, 7] was 0%, the “Average damage % 7DAT” value [3, 7] was 0% and the “Average damage % 14DAT” value [3, 7] was 0%. For the same molecule, the “Average damage % 21DAT” value [3, 7] was 0%, the “Average damage % 3DAT” value [3, 8] was 0% and the “Average damage % 7DAT” value [3, 8] was 0%. The “Average damage % 14DAT” value [3, 8] was 0%, the “Average damage % 21DAT” value [3, 8] was 0% and the “Average damage % 3DAT” value [4, 9] was 0%. The “Average damage % 7DAT” value [4, 9] was 0%, the “Average damage % 14DAT” value [4, 9] was 0% and the “Average damage % 21DAT” value [4, 9] was 0%. For the same molecule, the “Average damage % 3DAT” value [4, 10] was 0%, the “Average damage % 7DAT” value [4, 10] was 0% and the “Average damage % 14DAT” value [4, 10] was 0%. The “Average damage % 21DAT” value [4, 10] was 0%, the “Average damage % 3DAT” value [5, 11] was 6% and the “Average damage % 7DAT” value [5, 11] was 0%. The “Average damage % 14DAT” value [5, 11] was 0%, the “Average damage % 21DAT” value [5, 11] was 0% and the “Average damage % 3DAT” value [5, 12] was 5%. The “Average damage % 7DAT” value [5, 12] was 0%, the “Average damage % 14DAT” value [5, 12] was 0% and the “Average damage % 21DAT” value [5, 12] was 0%.
